Data: patent publication US20110229482A1, “Method of inhibiting infection by HCV, other flaviviridae viruses, and any other virus that complexes to low density lipoprotein or to very low density lipoprotein in blood by preventing viral entry into a cell” (priority 2000, published 2011)
Read-outs that look alike come from different tables or passages of the source.

How the values were obtained:
LDL receptor [1] = target: T1, LDL receptor (Homo sapiens, UniProt P01130); assay: DiI-LDL endocytosis (uptake) by cultured cells, flow cytometry / fluorescence microscopy; type: cell-based; settings: for Mean fluorescence: DiI-LDL treatment
T1 construct: endogenous in cells; host or cells: G4 B-lymphocyte line (human-mouse heterohybridoma fused with patient B cells), HepG2 hepatoma cells
T1 sequence (P01130 22-860): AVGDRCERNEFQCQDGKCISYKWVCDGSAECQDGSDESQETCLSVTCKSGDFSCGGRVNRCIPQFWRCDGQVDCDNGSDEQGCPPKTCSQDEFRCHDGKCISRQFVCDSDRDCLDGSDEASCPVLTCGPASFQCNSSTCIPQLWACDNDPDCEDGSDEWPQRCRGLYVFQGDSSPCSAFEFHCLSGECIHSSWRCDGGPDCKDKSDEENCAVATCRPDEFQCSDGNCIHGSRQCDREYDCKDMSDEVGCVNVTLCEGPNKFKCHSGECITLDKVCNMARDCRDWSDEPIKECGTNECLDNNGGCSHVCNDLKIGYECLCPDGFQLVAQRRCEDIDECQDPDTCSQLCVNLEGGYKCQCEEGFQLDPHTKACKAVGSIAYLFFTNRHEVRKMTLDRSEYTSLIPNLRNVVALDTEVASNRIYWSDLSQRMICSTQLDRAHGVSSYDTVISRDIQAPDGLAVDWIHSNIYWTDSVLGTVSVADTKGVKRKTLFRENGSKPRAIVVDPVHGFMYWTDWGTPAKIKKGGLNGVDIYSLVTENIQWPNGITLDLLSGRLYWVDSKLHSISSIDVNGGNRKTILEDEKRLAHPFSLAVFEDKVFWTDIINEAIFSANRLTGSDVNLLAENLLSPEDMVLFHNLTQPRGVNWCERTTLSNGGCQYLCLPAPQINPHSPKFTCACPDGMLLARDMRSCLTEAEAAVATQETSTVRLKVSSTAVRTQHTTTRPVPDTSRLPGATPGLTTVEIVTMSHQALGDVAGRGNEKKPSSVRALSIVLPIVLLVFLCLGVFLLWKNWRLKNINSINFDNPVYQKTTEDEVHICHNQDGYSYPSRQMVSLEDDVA
Description: LDL Receptor Assays: Cells were cultured in Roswell Park Memorial Institute (RPMI) medium supplemented either with 10% BVDV-free bovine calf serum or with RPMI medium supplemented with 10% lipoprotein-deficient BVDV-free medium to upregulate expression of the LDL receptor. The cells were then washed twice with phosphate-buffered saline (PBS), pH 7.2. Cytospin preparations were made, fixed with acetone, blocked with 5% normal mouse serum, and the LDL receptor visualized by incubating the slides with 5 μg/ml purified IgG 2a monoclonal anti-LDL receptor antibody followed by a 1:50 dilution of fluorescein (FITC)-labeled goat anti-mouse [F(ab)′2] second antibody (Jackson Immunoresearch, West Grove, Pa.).
The cells were washed twice with cold PBS and fixed with 1% buffered paraformaldehyde, and cytospin preparations were made for fluorescent microscopic studies or cells in suspension were analyzed by flow cytometry. Flow cytometric analysis was performed using the Epic XL-MCL cytometer (Coulter Corp., Miami, Fla.) using a 575 BP filter. Nonspecific binding of DiI-LDL was determined using DiI-LDL treated with cyclohexanedione and was subtracted from the DiI-LDL binding to give specific DiI-LDL binding to cultured cells.

HCV [2] = type: cell-based, hepatitis C virus; parameters: key to Endocytosis of 1 × 10^6 gE HCV from each fraction intensity of staining: ++: Moderately positive; +: Weakly positive
HCV [3] = type: in vivo, mouse
LDL receptor [4] = assay: LDL receptor expression in liver sections of hLDLR Tg mice, fluorescence staining; type: in vivo; settings: Tg mouse pretreated with 0.5 mg, then inoculated with HCV
[5] = density gradient fractions of HCV serum, ISH

Compound: DiI-LDL: LDL labeled with 1,1′-dioctadecyl-3,3,3′,3′-tetramethylindocarbocyanine iodine (DiI)
- Mean fluorescence (LDL receptor [1]; G4 cells, lipoprotein deficient medium (upregulated LDL receptor)): 16 ± 7
- Mean fluorescence (LDL receptor [1]; G4 cells, routine culture medium (RPMI with 10% fetal bovine serum)): 4 ± 2.0
- Mean fluorescence (LDL receptor [1]; HepG2 cells, routine culture medium): 16 ± 5

Compound: heparin sulfate
- Inhibition of endocytosis of HCV (HCV [2]; 25 units/ml): inhibited

Compound: soluble LDL receptor: soluble LDL receptor (SEQ ID NO:1)
- Inhibition of endocytosis of HCV (HCV [2]; Daudi cells, pretreatment 30 minutes at 37° C., HCV 2 hours at 37° C.): completely inhibits

Compound: LDL: low density lipoprotein, d=1.019-1.063 g/ml, from normal sera or purchased from Cortex
- Endocytosis of 5 μg DiI-labeled fraction mean fluorescence (log scale) (LDL receptor [1]; density gradient fractions of HCV serum): 9.98
- Inhibition of uptake of DiI-LDL (LDL receptor [1]; upregulated G4 cells, 5 μg DiI-LDL, excess unlabeled LDL): completely inhibited
- Restoration of endocytosis of "free" HCV (HCV [2]): restoration of endocytosis
- Inhibition of endocytosis of HCV (competitive) (HCV [2]; HepG2 or B cells (G4 and E11), 25-100 μg/ml): completely inhibited
- Endocytosis of 1 × 10^6 gE HCV from each fraction % cell positive (HCV [2]; [5]): 75%
- Endocytosis of 1 × 10^6 gE HCV from each fraction intensity of staining (HCV [2]; [5]): +

Compound: 5^th repeat peptide: 39 amino acid 5th repeat of the ligand binding domain of the LDL receptor, amino acids 193-231 of SEQ ID NO:1
- Inhibition of endocytosis of HCV by hepatocytes (HCV [3]; hLDLR Tg mouse, 1 mg one hour prior to intraperitoneal HCV (5.0×10^6 gE)): completely inhibits

Compound: CC(C)c1c(C(=O)Nc2ccccc2)c(-c2ccccc2)c(-c2ccc(F)cc2)n1CC[C@@H](O)C[C@@H](O)CC(=O)O [atorvastatin]
- Modulation of LDL receptor (fluorescence staining) (LDL receptor [4]): upregulation of the LDL receptor
- Quantitative HCV of the liver (HCV [3]; Tg mouse pretreated with 0.5 mg, control mouse 43): 163 HCV gE per mg liver

Compound: O=C(O)CN(CCOCCOCCN(CC(=O)O)CC(=O)O)CC(=O)O [EGTA, ethylene glycol bis(β-aminoethyl ether)-N,N,N′,N′-tetraacetic acid]
- Inhibition of endocytosis of HCV (HCV [2]): inhibited
